Measurements reported in PubChem BioAssay (NCI).
Values joined by “and” are separate entries in the source; they are usually repeats but may differ in a detail not shown here. Identical values can stand only once.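 Following 48 hours of exposure in 96-well plates, responses at five concentrations were used to interpolate endpoints linearly. Abbreviation: GI50, concentration required for 50% inhibition of growth. TGI: concentration producing complete growth inhibition.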

Key:
Assay in all cases: inhibition of tumour cell growth, NCI panel, 48 h
[1] = test system: 786-0 renal
[2] = test system: BT-549 breast
[3] = test system: CAKI-1 renal
[4] = test system: HOP-92 NSCLC
[5] = test system: NCI-H522 lung
[6] = test system: OVCAR-5 ovarian
[7] = test system: OVCAR-8 ovarian
[8] = test system: SF-268 CNS
[9] = test system: SR leukemia
[10] = test system: TK-10 renal

Compound | TGI [1] | TGI [2] | TGI [3] | TGI [4] | GI50 [5] | TGI [5] | GI50 [6] | TGI [6] | GI50 [7] | TGI [7] | TGI [8] | GI50 [9] | TGI [9] | GI50 [10] | TGI [10] | GI50 [1] | GI50 [2] | GI50 [3] | GI50 [4] | GI50 [8]
C/C(=N\NC(=S)N1CC2CCC(CC2)C1)c1cccc(C)n1 | 11.7 µM | 10.3 µM | 14.2 µM | 16.4 µM | 232 nM | 0.343 µM and 1.5 µM | < 0.1 nM | 15.9 µM | 229 nM | 13 µM | 13 µM | 210 nM | > 32.9 µM | 786 nM | 16.1 µM |  |  |  |  | 
NC(N)=Nc1nc2ccc([N+](=O)[O-])cc2[nH]1 | > 100 µM | > 100 µM | > 100 µM | > 100 µM |  | > 100 µM |  | > 100 µM |  | > 100 µM | > 100 µM |  | > 100 µM |  | > 100 µM |  |  |  |  | 
COC(=O)/C=C1/SC(N2N=C(c3cccs3)CC2c2ccc(F)cc2)=NC1=O (centres undefined) | 8.61 µM | 8.09 µM | 10.2 µM | 5.67 µM | 2150 nM | 4.79 µM | 2460 nM | 5.21 µM | 2590 nM | 7.66 µM | 12.6 µM | 2230 nM | 11.8 µM | 2600 nM | 8.16 µM | 3.12 µM | 3.21 µM | 2820 nM | 2400 nM | 2950 nM
C=C(CC(=O)O)C(=O)O (tested in a mixture with another compound) | > 50 µg/mL | > 50 µg/mL | > 50 µg/mL | > 50 µg/mL | > 50 µg/mL | > 50 µg/mL | > 50 µg/mL | > 50 µg/mL | > 50 µg/mL | > 50 µg/mL | > 50 µg/mL | > 50 µg/mL | > 50 µg/mL | > 50 µg/mL | > 50 µg/mL | > 50 µg/mL | > 50 µg/mL | > 50 µg/mL | > 50 µg/mL | > 50 µg/mL
CC(C)n1nc(-c2ccc3oc(N)nc3c2)c2c(N)ncnc21 | 0.4 µM and 1.41 µM |  | 0.725 µM and 0.265 µM | < 0.01 µM | < 10 nM | 15.3 µM and 1.76 µM | 13.2 nM and 16.1 nM | 1.4 µM and 2.08 µM | 24.6 nM and 21.8 nM | 1.24 µM and 0.506 µM | 2.88 µM and 1.85 µM | 28.4 nM and < 11.2 nM | 3.84 µM | < 11.3 nM and 11.2 nM | 0.24 µM and 0.0897 µM | 0.0146 µM and 0.0266 µM | < 0.01 µM | < 15.7 nM and 16.1 nM | < 10 nM | 15.1 nM and 15.4 nM
COc1cc(-c2cc(/C=C/C(=O)c3ccc(Cl)c(Cl)c3)[nH]n2)cc(OC)c1OC | 68 µM | 29.2 µM | > 100 µM | 8.25 µM | 1330 nM | 3.04 µM | 20500 nM | > 100 µM | 6300 nM | 34 µM | 63.3 µM | 393 nM | 13.5 µM | 8340 nM | 43.2 µM | 10.1 µM | 8.4 µM | 16900 nM | 2530 nM | 13700 nM
COc1ccc2c(Cl)cc(NC(=O)Nc3c(C)cccc3C)nc2c1 | > 100 µM | > 100 µM | > 100 µM | 27.4 µM | > 100000 nM | > 100 µM | > 100000 nM | > 100 µM | 24700 nM | > 100 µM | > 100 µM | 27500 nM | > 100 µM | 11200 nM | 58.2 µM | 7.92 µM | 36 µM | 5270 nM | 4260 nM | 39700 nM
